Laboratory results: patent US20200277646A1, “METHOD OF DETERMINING TERPENE-BASED BIOCONTROL AGENTS FOR CANNABIS AND HEMP” (priority 2019, published 2020)

Experiments:
Assay type in all cases: cell-based
[1] = system: three mold species and one species of Enterobacteriaceae found on cannabis flowers; assay: Paper inhibition disc trials across several microbial species; conditions: paper inhibition discs with terpene dilutions in ethanol; EB species and three mold species
Source text: The method of determining terpene-based biocontrol agents for use on cannabis and hemp include processing steps that include a. Isolate epiphytic microorganisms from cannabis ‘flower wash’ and isolate into pure cultures. b. Grow up individual fungal or bacterial broth cultures with shaking at RT until turbidity is evident; if, possible take OD600 nm reading of turbidity for each culture just prior to plating out serial dilutions onto agar plates to determine ˜CFU/ml. c. Based on CFU data from (b) above, re-inoculate fresh broth cultures for individual cultures monitoring OD600 nm to reach previous data point and make appropriate dilutions to attain complete seeding on agar petri plate. d. While allowing bacterial suspension to be absorbed into agar, prepare terpene-treated Whatman filter paper hole punches by aliquoting 25 μl of either full strength, 1:10 dilution or 1:100 dilution. Dilutions should be made into 1-15% MeOH or 1-2% castile soap. e. […] One terpene per plate at three concentrations with negative control. ii. One microbial culture seeded per plate. f. Allow plates to grow with incubation at 28° C. for overnight and photograph as well as measuring any zones of inhibition. Continue incubation for 2 more days, taking photographs and making measurements after each 24-hr period. g. Repeat steps (c) through (f) for each terpene against all microbial cultures.
These four plates show three mold species and one species of Enterobacteriaceae found on cannabis flowers 1010. One Enterobacteriaceae species sample plate and three mold species sample plates 1020. An Enterobacteriaceae Count Plate referred to herein as EB plate 1022, and mold species sample plates Mold 1 plate 1024, Mold 2 plate 1026, and Mold 3 plate 1028. The indicated colonies were picked and cultured prior to inoculation of agar petri dishes 1030. Paper inhibition discs with terpene dilutions in ethanol were applied immediately after inoculation of the agar plate as described previously 1040
The EB species and three mold species were tested for inhibition with the selected terpenes 1110. The indicated colonies were picked and cultured prior to inoculation of agar petri dishes 1120. Paper inhibition discs with terpene dilutions in ethanol were applied immediately after inoculation of the agar plate as described previously 1130. […] The results of the trials across several microbial species is continued in FIG. 11B.
There was also significant inhibition of bacterial growth by many of the terpenes 1150. Different microbial species were differentially affected by individual terpenes 1160. […]

[2] = system: yeast and mold species from certified reference materials; assay: Paper disc inhibition on agar plates of yeast and mold species from certified reference materials; conditions: paper discs, terpene only, 10% and 1% dilutions in ethanol; ethanol-only center disc
Procedure: Paper discs were added to the plates, and small volumes of terpenes diluted in ethanol were added to the discs 902. The center discs had ethanol only, while ‘1:1’ discs had terpene only 904 and 10% and 1% dilutions of terpene in ethanol were also included 910. […] Many terpenes are likely to have inhibitory effects on microbial growth 940. […] Terpenes microbial growth inhibitor samples 970 include carene, humulene, limonene, ocimene, terpineol, and terpinolene of one embodiment.

[3] = system: mold found on a cannabis flower; assay: Terpene added to known contaminated sample during preparation of the culture plate
Source text: Terpenes can inhibit the growth of mold found on a cannabis flower 840. An effective range is 1-5% with some inhibition at levels as low as 0.1% 850 of one embodiment.

Structure (SMILES) | effectiveness among terpenes tested [1] | inhibition of yeast and mold growth [2] | inhibition of mold growth ([3]; terpene added at 0.1% to known contaminated sample) | inhibition of mold growth ([3]; terpene added at 1% to known contaminated sample)
CC(C)=CCCC(C)=CC=O [Citral, citral] | the most effective of terpenes tested | – | – | –
C=CCc1ccc(O)c(OC)c1 [eugenol] | the most effective of terpenes tested | – | – | –
CC(C)=CCC/C(C)=C/CO [geraniol] | the most effective of terpenes tested | – | – | –
C=CC(C)(O)CCC=C(C)C (stereo not shown) [linalool] | the most effective of terpenes tested | – | – | –
CC1=CCC(=C(C)C)CC1 [terpinolene] | – | the most inhibition | significant inhibition of mold growth | significant inhibition of mold growth
